# Results as given in patent US20150110725A1, “MIXTURE FOR THE INHIBITION OF MELANIN BIOSYNTHESIS” (GENERAL TOPICS S.R.L., priority 2012, published 2015).
# Tested on: murine melanoma named B16
# Experiment: Inhibition of melanin biosynthesis in secondary cultures of murine melanoma B16, 72 hours of exposure
# Type: cell-based
# Method: In order to evaluate the inhibition of melanin biosynthesis by the present mixture, an in vitro experimental model was used which consists of secondary cultures of a murine melanoma named B16. This strain is composed of cells with fibroblastoid morphology which produce melanin (Source: European Collection of Cell Cultures, ECACC).
# For the tests, powders of the active ingredients were dissolved in ethanol and propylene glycol (1:1) at 10% (w/w) followed by dilution in culture medium DMEM high glucose+10% FBS supplemented with antibiotics (Penicillin 2000 IU/ml, Streptomycin 1000 IU/ml, Gentamicin 10 mg/ml) to final concentrations of: • A) 4-(1-phenylethyl)-1,3-benzenediol: 10 μg/ml; • B) Acetylglucosamine: 25 μg/ml, 50 μg/ml, 75 μg/ml; • C) Ethyl linoleate: 50 μg/ml; • D) 4-(1-phenylethyl)-1,3-benzenediol at concentration of 10 μg/ml and acetylglucosamine at concentration of 75 μg/ml; • E) 4-(1-phenylethyl)-1,3-benzenediol at a concentration of 10 μg/ml, acetylglucosamine at a concentration of 75 μg/ml, and ethyl linoleate at a concentration of 75 μg/ml. • F) hydroquinone at a concentration of 5 μg/ml (non-cytotoxic concentration)
# At passage 30 the afore said cells were seeded on 6-well plates for 24 hours at a concentration of 80,000 cells per well. Then, fresh culture medium containing the afore said samples was added. Untreated cells were used as a negative control, whereas cells treated with hydroquinone at a non-cytotoxic concentration of 5 μg/ml were used as a positive control, as indicated above at point F).
# Each sample was tested in duplicate.
# After 72 hours of exposure, melanin and intracellular proteins were dosed.
# Cells were washed once with phosphate buffered saline (PBS) and then lysed with NaOH 0.1N. The lysate was heated at 60° C. for 1 hour to allow melanin to be solubilized.
# In order to evaluate the amount of melanin in the cell lysate, a spectrophotometric reading was taken at a wavelength of 405 nm with the use of a colorimeter (Tecan Sunrise Remote Model) equipped with a plate reader.
# A standard curve for melanin titrated from 15 to 500 μg/ml was prepared.
# The protein dosage was carried out according to the Bradford's method (Bradford M., […]). […]
# The reading was taken at 595 nm with a colorimeter (Tecan, Sunrise) equipped with a plate reader.
# In order to quantify protein and melanin contents, a standard calibration curve for albumin and melanin was constructed, and their concentrations in the samples were calculated by using the curve fit formula and the corresponding absorbances.
# Then, averages of individual data were calculated and, for each sample, the percentage reduction of melanin was calculated compared to the negative control: […]
smiles,measurement,setting,value
CC(=O)N[C@@H]1[C@@H](O)[C@H](O)[C@@H](CO)O[C@@H]1O [acetylglucosamine],average reduction in melanin biosynthesis,"acetylglucosamine alone, average over 25 μg/ml, 50 μg/ml and 75 μg/ml, B16 cells, 72 h",8%
"CC(c1ccccc1)c1ccc(O)cc1O (stereo not shown) [4-(1-phenylethyl)-1,3-benzenediol]",percentage reduction in melanin biosynthesis,"10 μg/ml, B16 cells, 72 h",about 50%
CCCCC/C=C\C/C=C\CCCCCCCC(=O)OCC [ethyl linoleate],ability to inhibit melanin synthesis when used individually,"ethyl linoleate alone (50 μg/ml), compared with the mixture containing it",significantly lower than that of the present mixture
Oc1ccc(O)cc1 [hydroquinone],inhibition at 5 µg/mL,"Mus musculus, hydroquinone at non-cytotoxic concentration (5 μg/ml), positive control, B16 cells, 72 h, read-out: ability to inhibit melanin biosynthesis",~40%
